The values that follow come from patent US12275731B2, “Azaindole inhibitors of wild-type and mutant forms of LRRK2” (DANA-FARBER CANCER INSTITUTE, INC., priority 2018, dated 2025).

Test in all cases: KinomeScan profiling
Holding throughout (format): binding

One test has as its target T1, ASK2 (Homo sapiens, UniProt O95382).
T1 construct: purchased KinomeScan®
T1 sequence (O95382 1-1288): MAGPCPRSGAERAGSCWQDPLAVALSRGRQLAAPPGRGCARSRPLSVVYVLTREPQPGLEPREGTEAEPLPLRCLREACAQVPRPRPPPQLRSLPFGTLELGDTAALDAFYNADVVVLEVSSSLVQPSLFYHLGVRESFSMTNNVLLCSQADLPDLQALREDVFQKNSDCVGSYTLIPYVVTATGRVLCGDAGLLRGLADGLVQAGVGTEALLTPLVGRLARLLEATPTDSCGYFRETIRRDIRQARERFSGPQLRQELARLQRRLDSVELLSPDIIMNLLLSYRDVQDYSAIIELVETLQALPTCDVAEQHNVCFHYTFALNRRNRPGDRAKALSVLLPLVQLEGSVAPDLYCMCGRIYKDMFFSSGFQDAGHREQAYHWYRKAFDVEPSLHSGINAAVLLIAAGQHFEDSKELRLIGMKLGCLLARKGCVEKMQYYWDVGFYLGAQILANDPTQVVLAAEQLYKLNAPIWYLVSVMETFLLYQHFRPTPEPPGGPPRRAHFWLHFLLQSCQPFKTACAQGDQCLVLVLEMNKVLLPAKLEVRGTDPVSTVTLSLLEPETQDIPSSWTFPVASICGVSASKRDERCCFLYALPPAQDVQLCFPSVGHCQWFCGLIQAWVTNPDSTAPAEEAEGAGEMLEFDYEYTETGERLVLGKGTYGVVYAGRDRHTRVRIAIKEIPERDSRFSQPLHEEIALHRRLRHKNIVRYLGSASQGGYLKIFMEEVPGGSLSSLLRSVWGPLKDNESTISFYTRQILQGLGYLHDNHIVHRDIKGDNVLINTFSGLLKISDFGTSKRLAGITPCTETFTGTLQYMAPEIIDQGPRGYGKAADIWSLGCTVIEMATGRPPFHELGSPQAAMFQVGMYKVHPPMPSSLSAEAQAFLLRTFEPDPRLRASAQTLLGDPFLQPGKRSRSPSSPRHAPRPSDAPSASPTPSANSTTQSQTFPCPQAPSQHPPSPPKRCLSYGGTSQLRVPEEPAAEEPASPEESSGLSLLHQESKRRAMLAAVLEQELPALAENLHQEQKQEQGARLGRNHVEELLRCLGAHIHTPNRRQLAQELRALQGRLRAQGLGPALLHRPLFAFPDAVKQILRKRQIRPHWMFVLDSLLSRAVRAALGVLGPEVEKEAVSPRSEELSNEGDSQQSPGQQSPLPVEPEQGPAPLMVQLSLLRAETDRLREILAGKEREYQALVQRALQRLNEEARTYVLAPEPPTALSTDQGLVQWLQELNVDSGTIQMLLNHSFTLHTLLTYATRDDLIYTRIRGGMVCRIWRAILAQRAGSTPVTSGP
Conditions: ASK2, 1 μM; read-out: % control. In outline: (§1)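 Compounds were screened at 1 μM in DMSO across a 468-kinase KinomeScan panel. Binding was expressed as % control, scaled between a positive control (0%) and DMSO (100%) using luminescence signal. A value under 35% counted as active.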

The target in a further test is T2, NEK11 (Homo sapiens, UniProt Q8NG66).
T2 sequence (Q8NG66 1-645): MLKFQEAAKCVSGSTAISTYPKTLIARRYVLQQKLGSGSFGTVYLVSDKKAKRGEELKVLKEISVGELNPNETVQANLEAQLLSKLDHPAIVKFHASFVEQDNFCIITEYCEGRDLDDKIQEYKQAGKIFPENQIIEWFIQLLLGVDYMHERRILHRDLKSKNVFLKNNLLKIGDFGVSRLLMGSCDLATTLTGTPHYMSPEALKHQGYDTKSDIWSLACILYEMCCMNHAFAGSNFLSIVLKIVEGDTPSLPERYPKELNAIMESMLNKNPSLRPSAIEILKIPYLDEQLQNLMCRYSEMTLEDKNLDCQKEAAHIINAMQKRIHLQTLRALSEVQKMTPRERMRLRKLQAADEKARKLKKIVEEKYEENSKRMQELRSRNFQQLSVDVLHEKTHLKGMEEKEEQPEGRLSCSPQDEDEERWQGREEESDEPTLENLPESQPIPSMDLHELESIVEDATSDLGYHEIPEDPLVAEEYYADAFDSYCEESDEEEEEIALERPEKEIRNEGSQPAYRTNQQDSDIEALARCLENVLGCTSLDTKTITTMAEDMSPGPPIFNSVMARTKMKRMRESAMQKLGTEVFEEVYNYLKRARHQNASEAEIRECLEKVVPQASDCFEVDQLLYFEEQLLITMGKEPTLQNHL
Conditions: NEK11, 1 μM; read-out: % control. In outline: as §1

For another test, the target named is FRK (Homo sapiens, UniProt P42685). The following applies: read-out: % control. Summed up: as §1
Sequence of FRK (P42685 whole entry): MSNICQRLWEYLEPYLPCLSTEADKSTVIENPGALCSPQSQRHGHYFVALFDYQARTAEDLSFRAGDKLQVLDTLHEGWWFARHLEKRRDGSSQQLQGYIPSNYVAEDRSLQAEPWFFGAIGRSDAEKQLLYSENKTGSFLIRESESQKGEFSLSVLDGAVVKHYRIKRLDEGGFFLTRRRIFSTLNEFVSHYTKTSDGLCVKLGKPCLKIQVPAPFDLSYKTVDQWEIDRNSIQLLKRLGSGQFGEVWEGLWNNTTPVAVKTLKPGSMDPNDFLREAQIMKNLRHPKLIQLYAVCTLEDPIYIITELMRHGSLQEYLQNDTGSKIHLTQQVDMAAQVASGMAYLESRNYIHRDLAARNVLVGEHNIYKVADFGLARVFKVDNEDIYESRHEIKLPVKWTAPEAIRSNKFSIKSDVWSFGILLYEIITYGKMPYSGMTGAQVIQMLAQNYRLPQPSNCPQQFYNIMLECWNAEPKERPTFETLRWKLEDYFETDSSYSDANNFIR
A further test has as its target T3, ALK (Homo sapiens, UniProt Q9UM73).
T3 construct: purchased KinomeScan®
The following applies: read-out: % control. Summed up:
as §1

The next test concerns the target T4, ABL1-phosphorylated (Homo sapiens, UniProt P00519).
T4 construct: purchased KinomeScan®
Conditions: read-out: % control. Summed up:
as §1

The target in the next test is T5, KIT (Homo sapiens, UniProt P10721).
T5 construct: purchased KinomeScan®
T5 sequence (P10721 26-976): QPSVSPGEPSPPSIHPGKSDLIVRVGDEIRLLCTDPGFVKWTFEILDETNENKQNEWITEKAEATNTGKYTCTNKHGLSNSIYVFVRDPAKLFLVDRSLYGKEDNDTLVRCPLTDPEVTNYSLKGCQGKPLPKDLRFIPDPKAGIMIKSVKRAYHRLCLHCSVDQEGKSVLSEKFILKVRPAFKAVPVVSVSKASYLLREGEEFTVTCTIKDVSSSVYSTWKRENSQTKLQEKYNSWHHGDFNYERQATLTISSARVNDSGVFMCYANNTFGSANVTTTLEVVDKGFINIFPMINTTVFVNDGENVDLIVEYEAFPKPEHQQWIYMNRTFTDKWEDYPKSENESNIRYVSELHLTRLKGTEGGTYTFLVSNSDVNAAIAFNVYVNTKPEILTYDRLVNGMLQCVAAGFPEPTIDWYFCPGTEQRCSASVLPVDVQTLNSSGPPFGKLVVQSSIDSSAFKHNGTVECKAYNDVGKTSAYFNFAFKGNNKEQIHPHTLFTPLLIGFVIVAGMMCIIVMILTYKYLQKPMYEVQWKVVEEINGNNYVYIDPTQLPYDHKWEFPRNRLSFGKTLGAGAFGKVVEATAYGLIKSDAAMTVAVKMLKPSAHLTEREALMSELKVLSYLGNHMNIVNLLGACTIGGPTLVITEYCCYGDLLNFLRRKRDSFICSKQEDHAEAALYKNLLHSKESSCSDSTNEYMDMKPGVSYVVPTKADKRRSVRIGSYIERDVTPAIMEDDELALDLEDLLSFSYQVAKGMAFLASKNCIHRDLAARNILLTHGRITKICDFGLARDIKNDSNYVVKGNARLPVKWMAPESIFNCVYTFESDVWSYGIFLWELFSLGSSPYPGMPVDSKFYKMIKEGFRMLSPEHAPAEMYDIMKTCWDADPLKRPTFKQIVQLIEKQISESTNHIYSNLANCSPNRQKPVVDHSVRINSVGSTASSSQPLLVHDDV
Conditions: read-out: % control. In outline: as §1

T4 sequence (P00519 whole entry): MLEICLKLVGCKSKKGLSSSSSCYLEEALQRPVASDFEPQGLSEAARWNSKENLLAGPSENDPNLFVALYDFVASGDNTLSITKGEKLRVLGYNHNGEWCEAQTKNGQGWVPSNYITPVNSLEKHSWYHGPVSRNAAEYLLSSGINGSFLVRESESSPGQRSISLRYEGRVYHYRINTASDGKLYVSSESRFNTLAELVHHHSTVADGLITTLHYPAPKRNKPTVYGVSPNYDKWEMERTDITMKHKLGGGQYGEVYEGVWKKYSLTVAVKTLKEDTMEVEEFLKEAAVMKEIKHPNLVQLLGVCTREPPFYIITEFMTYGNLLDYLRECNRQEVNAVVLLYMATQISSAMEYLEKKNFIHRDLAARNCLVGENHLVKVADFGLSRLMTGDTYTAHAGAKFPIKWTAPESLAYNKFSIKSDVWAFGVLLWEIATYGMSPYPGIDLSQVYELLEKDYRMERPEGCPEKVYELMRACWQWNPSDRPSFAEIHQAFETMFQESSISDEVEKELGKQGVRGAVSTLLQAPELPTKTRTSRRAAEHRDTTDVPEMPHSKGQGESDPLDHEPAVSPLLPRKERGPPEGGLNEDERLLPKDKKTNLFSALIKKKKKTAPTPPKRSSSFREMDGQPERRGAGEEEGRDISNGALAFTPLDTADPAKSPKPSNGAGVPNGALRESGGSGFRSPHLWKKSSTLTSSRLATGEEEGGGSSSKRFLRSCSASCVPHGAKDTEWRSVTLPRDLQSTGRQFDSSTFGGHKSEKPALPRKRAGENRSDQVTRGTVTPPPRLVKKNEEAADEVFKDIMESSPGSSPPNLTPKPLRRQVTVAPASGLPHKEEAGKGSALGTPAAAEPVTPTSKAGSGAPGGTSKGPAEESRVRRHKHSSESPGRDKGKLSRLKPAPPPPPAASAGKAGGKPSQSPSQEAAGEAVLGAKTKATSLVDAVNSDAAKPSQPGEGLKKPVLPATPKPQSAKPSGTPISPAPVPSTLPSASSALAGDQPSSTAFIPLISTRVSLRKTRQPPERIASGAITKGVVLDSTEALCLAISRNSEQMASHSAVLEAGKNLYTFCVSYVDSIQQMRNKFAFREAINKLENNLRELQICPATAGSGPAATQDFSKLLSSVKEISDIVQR
T3 sequence (Q9UM73 19-1620): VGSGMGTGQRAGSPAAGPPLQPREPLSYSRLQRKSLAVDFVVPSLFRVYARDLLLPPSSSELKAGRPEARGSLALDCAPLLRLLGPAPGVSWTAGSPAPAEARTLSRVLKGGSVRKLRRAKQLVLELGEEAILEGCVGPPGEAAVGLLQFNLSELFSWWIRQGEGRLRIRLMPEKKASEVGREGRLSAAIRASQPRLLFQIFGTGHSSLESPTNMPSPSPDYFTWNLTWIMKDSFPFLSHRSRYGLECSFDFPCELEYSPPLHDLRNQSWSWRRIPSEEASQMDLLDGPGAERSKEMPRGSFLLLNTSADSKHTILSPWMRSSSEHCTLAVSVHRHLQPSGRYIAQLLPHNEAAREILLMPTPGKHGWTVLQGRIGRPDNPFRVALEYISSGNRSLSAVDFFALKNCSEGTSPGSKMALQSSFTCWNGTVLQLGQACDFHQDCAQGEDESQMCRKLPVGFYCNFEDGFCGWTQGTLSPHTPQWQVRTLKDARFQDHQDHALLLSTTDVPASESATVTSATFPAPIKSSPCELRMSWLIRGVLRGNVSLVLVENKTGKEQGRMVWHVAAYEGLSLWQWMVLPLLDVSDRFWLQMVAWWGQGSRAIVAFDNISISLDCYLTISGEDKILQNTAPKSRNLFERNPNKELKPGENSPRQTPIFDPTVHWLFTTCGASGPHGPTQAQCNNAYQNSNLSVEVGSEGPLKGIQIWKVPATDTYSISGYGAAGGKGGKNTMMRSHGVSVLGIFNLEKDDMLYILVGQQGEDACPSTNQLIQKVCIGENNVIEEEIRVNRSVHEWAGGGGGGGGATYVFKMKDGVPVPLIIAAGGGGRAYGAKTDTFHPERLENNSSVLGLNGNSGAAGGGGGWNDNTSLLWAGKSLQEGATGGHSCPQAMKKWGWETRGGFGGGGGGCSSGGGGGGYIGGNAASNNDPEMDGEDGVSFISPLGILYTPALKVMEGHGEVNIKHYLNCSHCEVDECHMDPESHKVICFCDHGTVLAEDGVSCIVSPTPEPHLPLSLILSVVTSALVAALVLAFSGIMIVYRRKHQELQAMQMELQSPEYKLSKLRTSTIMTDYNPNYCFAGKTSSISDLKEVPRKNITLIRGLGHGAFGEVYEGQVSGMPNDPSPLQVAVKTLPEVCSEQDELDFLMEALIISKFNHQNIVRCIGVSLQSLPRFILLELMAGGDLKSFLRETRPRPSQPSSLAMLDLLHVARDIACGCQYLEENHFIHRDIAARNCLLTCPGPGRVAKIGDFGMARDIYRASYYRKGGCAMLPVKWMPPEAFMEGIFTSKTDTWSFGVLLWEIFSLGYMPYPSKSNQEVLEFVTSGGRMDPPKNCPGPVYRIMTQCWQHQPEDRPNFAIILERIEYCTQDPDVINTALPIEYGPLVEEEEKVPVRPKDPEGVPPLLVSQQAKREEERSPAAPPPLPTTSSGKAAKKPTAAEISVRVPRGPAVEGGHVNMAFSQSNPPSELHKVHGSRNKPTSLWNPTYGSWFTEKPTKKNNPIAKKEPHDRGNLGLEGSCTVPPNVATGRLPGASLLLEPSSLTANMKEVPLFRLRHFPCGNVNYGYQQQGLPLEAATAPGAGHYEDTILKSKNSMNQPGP

For `CNc1c(-c2ccc(C(=O)N3CCC(N4CCOCC4)CC3)cc2)cnc2[nH]cc(Cl)c12` [Compound 96, (4-(3-chloro-4-(methylamino)-1H-pyrrolo[2,3-b]pyridin-5-yl)phenyl)(4-morpholinopiperidin-1-yl)methanone], the remaining binding at 1 µM turned out to be 42% on ASK2; 96% on NEK11; 84% at FRK; 46% at ALK; 88% on ABL1-phosphorylated; 11% at KIT.

For the compound `O=C(c1ccc(-c2cnc3[nH]cc(Cl)c3c2NC2CCCC2)cc1)N1CCC(N2CCOCC2)CC1` [Compound 101, (4-(3-chloro-4-(cyclopentylamino)-1H-pyrrolo[2,3-b]pyridin-5-yl)phenyl)(4-morpholinopiperidin-1-yl)methanone], the remaining binding at 1 µM is 100% on ASK2; 100% on NEK11; 100% on FRK; 75% on ALK; 97% at ABL1-phosphorylated; 58% on KIT.

Take `CNc1c(-c2cnn([C@H]3CCN(C(C)=O)C[C@@H]3F)c2)cnc2[nH]cc(Cl)c12` [Compound 77, 1-((3S,4S)-4-(4-(3-chloro-4-(methylamino)-1H-pyrrolo[2,3-b]pyridin-5-yl)-1H-pyrazol-1-yl)-3-fluoropiperidin-1-yl)ethan-1-one]: the remaining binding at 1 µM at ASK2 turned out to be 30%; on NEK11, 97%; on FRK, 100%; at ALK, 40%; on ABL1-phosphorylated, 62%; on KIT, 4.8%.
